Results: ChEMBL document CHEMBL3046257, “Response of sweet maize (Zea mays L.) hybrids to halosulfuron” (Crop Prot, 2008)

Key:
Type in all cases: organism-based
[1] = test system: Zea mays; experiment: Toxicity in Zea mays GG446 (maize) assessed as visible injury at 50 g ai/ha applied shortly post-emergence at three to five-leaf stage using backpack sprayer measured after 7 days; conditions: in vivo, other, 168 h
[2] = test system: Zea mays; experiment: Toxicity in Zea mays GH2041 (maize) assessed as visible injury at 25 g ai/ha applied shortly post-emergence at three to five-leaf stage using backpack sprayer measured after 7 days; conditions: in vivo, other, 168 h
[3] = test system: Zea mays; experiment: Toxicity in Zea mays GH2684 (maize) assessed as cob size at 25 g ai/ha applied shortly post-emergence at three to five-leaf stage using backpack sprayer (reference value: 340 g); conditions: in vivo, other
[4] = test system: Zea mays; experiment: Toxicity in Zea mays Empire (maize) assessed as reduction in marketable yield at 25 g ai/ha applied shortly post-emergence at three to five-leaf stage using backpack sprayer; parameters: scale not given: the % may be the effect or the level left; conditions: in vivo, other
[5] = test system: Zea mays; experiment: Toxicity in Zea mays GH2547 (maize) assessed as marketable yield at 50 g ai/ha applied shortly post-emergence at three to five-leaf stage using backpack sprayer (reference value: 16.7 T/ha ); conditions: in vivo, other
[6] = test system: Zea mays; experiment: Toxicity in Zea mays Empire (maize) assessed as visible injury at 50 g ai/ha applied shortly post-emergence at three to five-leaf stage using backpack sprayer measured after 14 days; conditions: in vivo, other, 336 h
[7] = test system: Zea mays; experiment: Toxicity in Zea mays GH2041 (maize) assessed as marketable yield at 25 g ai/ha applied shortly post-emergence at three to five-leaf stage using backpack sprayer (reference value: 12.2 T/ha ); conditions: in vivo, other
[8] = test system: Zea mays; experiment: Toxicity in Zea mays GG446 (maize) assessed as visible injury at 50 g ai/ha applied shortly post-emergence at three to five-leaf stage using backpack sprayer measured after 14 days; conditions: in vivo, other, 336 h
[9] = test system: Zea mays; experiment: Toxicity in Zea mays GH2547 (maize) assessed as marketable yield at 25 g ai/ha applied shortly post-emergence at three to five-leaf stage using backpack sprayer (reference value: 16.7 T/ha ); conditions: in vivo, other
[10] = test system: Zea mays; experiment: Toxicity in Zea mays Empire (maize) assessed as visible injury at 25 g ai/ha applied shortly post-emergence at three to five-leaf stage using backpack sprayer measured after 28 days; conditions: in vivo, other, 672 h
[11] = test system: Zea mays; experiment: Toxicity in Zea mays GSS9299 (maize) assessed as cob size at 50 g ai/ha applied shortly post-emergence at three to five-leaf stage using backpack sprayer (reference value: 292 g); conditions: in vivo, other
[12] = test system: Zea mays; experiment: Toxicity in Zea mays Empire (maize) assessed as visible injury at 50 g ai/ha applied shortly post-emergence at three to five-leaf stage using backpack sprayer measured after 7 days; conditions: in vivo, other, 168 h
[13] = test system: Zea mays; experiment: Toxicity in Zea mays GSS9299 (maize) assessed as cob size at 25 g ai/ha applied shortly post-emergence at three to five-leaf stage using backpack sprayer (reference value: 292 g); conditions: in vivo, other
[14] = test system: Zea mays; experiment: Toxicity in Zea mays GH2298 (maize) assessed as visible injury at 50 g ai/ha applied shortly post-emergence at three to five-leaf stage using backpack sprayer measured after 28 days; conditions: in vivo, other, 672 h
[15] = test system: Zea mays; experiment: Toxicity in Zea mays GH2547 (maize) assessed as plant height at 25 g ai/ha applied shortly post-emergence at three to five-leaf stage using backpack sprayer measured after 21 days (Rvb =80 cm); conditions: in vivo, other, 504 h
[16] = test system: Zea mays; experiment: Toxicity in Zea mays GH2041 (maize) assessed as visible injury at 50 g ai/ha applied shortly post-emergence at three to five-leaf stage using backpack sprayer measured after 28 days; conditions: in vivo, other, 672 h
[17] = test system: Zea mays; experiment: Toxicity in Zea mays GG214 (maize) assessed as marketable yield at 50 g ai/ha applied shortly post-emergence at three to five-leaf stage using backpack sprayer (reference value: 14.2 T/ha ); conditions: in vivo, other
[18] = test system: Zea mays; experiment: Toxicity in Zea mays GG446 (maize) assessed as marketable yield at 50 g ai/ha applied shortly post-emergence at three to five-leaf stage using backpack sprayer (reference value: 20.0 T/ha ); conditions: in vivo, other
[19] = test system: Zea mays; experiment: Toxicity in Zea mays GG446 (maize) assessed as marketable yield at 25 g ai/ha applied shortly post-emergence at three to five-leaf stage using backpack sprayer (reference value: 20.0 T/ha ); conditions: in vivo, other
[20] = test system: Zea mays; experiment: Toxicity in Zea mays GG214 (maize) assessed as marketable yield at 25 g ai/ha applied shortly post-emergence at three to five-leaf stage using backpack sprayer (reference value: 14.2 T/ha ); conditions: in vivo, other
[21] = test system: Zea mays; experiment: Toxicity in Zea mays GH2041 (maize) assessed as visible injury at 25 g ai/ha applied shortly post-emergence at three to five-leaf stage using backpack sprayer measured after 14 days; conditions: in vivo, other, 336 h
[22] = test system: Zea mays; experiment: Toxicity in Zea mays GH2041 (maize) assessed as visible injury at 25 g ai/ha applied shortly post-emergence at three to five-leaf stage using backpack sprayer measured after 28 days; conditions: in vivo, other, 672 h
[23] = test system: Zea mays; experiment: Toxicity in Zea mays GH2684 (maize) assessed as visible injury at 25 g ai/ha applied shortly post-emergence at three to five-leaf stage using backpack sprayer measured after 28 days; conditions: in vivo, other, 672 h
[24] = test system: Zea mays; experiment: Toxicity in Zea mays GH2684 (maize) assessed as plant height at 25 g ai/ha applied shortly post-emergence at three to five-leaf stage using backpack sprayer measured after 21 days (Rvb =73 cm); conditions: in vivo, other, 504 h
[25] = test system: Zea mays; experiment: Toxicity in Zea mays GG214 (maize) assessed as visible injury at 50 g ai/ha applied shortly post-emergence at three to five-leaf stage using backpack sprayer measured after 7 days; conditions: in vivo, other, 168 h
[26] = test system: Zea mays; experiment: Toxicity in Zea mays Empire (maize) assessed as reduction in marketable yield at 50 g ai/ha applied shortly post-emergence at three to five-leaf stage using backpack sprayer; parameters: scale not given: the % may be the effect or the level left; conditions: in vivo, other
[27] = test system: Zea mays; experiment: Toxicity in Zea mays GH2298 (maize) assessed as marketable yield at 50 g ai/ha applied shortly post-emergence at three to five-leaf stage using backpack sprayer (reference value: 16.9 T/ha ); conditions: in vivo, other
[28] = test system: Zea mays; experiment: Toxicity in Zea mays GG214 (maize) assessed as visible injury at 25 g ai/ha applied shortly post-emergence at three to five-leaf stage using backpack sprayer measured after 7 days; conditions: in vivo, other, 168 h
[29] = test system: Zea mays; experiment: Toxicity in Zea mays GH2298 (maize) assessed as marketable yield at 25 g ai/ha applied shortly post-emergence at three to five-leaf stage using backpack sprayer (reference value: 16.9 T/ha ); conditions: in vivo, other
[30] = test system: Zea mays; experiment: Toxicity in Zea mays GSS9299 (maize) assessed as marketable yield at 25 g ai/ha applied shortly post-emergence at three to five-leaf stage using backpack sprayer (reference value: 13.2 T/ha ); conditions: in vivo, other

COc1cc(OC)nc(NC(=O)NS(=O)(=O)c2c(C(=O)O)c(Cl)nn2C)n1 [HALOSULFURON]
Activity [1]: 0% | Activity [2]: 1% | Activity [3]: 316 g | Activity [4]: 14% | Crop_yield [5]: 15.7 tons/ha | Activity [6]: 6% | Crop_yield [7]: 11.8 tons/ha | Activity [8]: 0% | Crop_yield [9]: 16.2 tons/ha | Activity [10]: 0% | Activity [11]: 297 g | Activity [12]: 8% | Activity [13]: 301 g | Activity [14]: 1% | Activity [15]: 78 cm | Activity [16]: 0% | Crop_yield [17]: 13.3 tons/ha | Crop_yield [18]: 19.6 tons/ha | Crop_yield [19]: 19.3 tons/ha | Crop_yield [20]: 13.4 tons/ha | Activity [21]: 1% | Activity [22]: 0% | Activity [23]: 0% | Activity [24]: 76 cm | Activity [25]: 3% | Activity [26]: 21% | Crop_yield [27]: 15.7 tons/ha | Activity [28]: 1% | Crop_yield [29]: 16.4 tons/ha | Crop_yield [30]: 12.3 tons/ha
